Columns and labels:
DDR1 [1] = target: T1, DDR1 (Homo sapiens (Human), UniProt Q08345); test: DDR1 binding assay (LanthaScreen Europium Kinase Binding assay); details: potency class, read-out: Ki DDR1
Method in brief: (§1)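 TR-FRET tracer displacement: compounds incubated 1 h at room temperature with 5 nM DDR1 (20 nM Tracer 178) or 5 nM DDR2 (10 nM Tracer 178), 2 nM Eu-anti-GST antibody, HEPES pH 7.5 buffer. 665/615 nm ratio read; IC50 from 4-parameter fit, converted to Ki by Cheng-Prusoff.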

DDR2 [2] = target: T2, DDR2 (Homo sapiens (Human), UniProt Q16832); test: DDR2 binding assay (LanthaScreen Europium Kinase Binding assay); details: potency class, read-out: Ki DDR2
T2 sequence (Q16832 22-855): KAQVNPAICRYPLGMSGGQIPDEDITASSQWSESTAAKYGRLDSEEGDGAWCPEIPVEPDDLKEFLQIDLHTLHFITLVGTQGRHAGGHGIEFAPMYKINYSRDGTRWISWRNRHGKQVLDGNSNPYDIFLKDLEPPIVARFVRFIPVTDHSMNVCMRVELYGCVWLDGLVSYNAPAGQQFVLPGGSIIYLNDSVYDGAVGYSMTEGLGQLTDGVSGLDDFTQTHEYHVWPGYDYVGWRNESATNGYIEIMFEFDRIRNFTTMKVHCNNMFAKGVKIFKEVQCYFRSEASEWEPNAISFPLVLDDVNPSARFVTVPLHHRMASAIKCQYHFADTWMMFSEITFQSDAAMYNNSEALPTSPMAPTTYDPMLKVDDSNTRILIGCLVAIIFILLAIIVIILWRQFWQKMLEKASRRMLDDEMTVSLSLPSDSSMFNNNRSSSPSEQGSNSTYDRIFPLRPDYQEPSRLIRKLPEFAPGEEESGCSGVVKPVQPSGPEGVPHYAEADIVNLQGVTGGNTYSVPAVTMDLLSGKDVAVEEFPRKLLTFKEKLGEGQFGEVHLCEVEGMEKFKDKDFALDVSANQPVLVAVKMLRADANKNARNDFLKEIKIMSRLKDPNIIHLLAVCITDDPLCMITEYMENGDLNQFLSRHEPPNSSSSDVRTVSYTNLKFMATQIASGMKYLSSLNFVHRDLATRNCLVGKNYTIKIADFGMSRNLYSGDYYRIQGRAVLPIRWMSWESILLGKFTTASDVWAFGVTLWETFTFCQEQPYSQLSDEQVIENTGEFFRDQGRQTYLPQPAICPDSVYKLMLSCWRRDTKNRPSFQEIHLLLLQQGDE
Method in brief: as §1

DDR1 [3] = target: T1, DDR1; test: DDR1 cell based assay (PathHunter U2OS DDR1 assay); details: U2OS-DDR1 cells, Type II Collagen stimulation, potency class
Method in brief: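 U2OS-DDR1 PathHunter cells preincubated 30 min with compound, then stimulated overnight at 37 °C with 20 μg/ml bovine type II collagen. Luminescent complementation signal read after 1 h detection at room temperature; normalized to vehicle (0%) and collagen-only (100%) controls, IC50 from variable-slope sigmoidal fit.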

DDR2 [4] = target: T2, DDR2; test: DDR2 cell based assay (phospho-ELISA in HEK293T-DDR2 recombinant cells); details: DDR2 phosphorylation, Type II Collagen stimulation, potency class, read-out: IC50DDR2
Method: The inhibition of DDR2 phosphorylation by compounds was evaluated in HEK293T-DDR2 recombinant cells by phospho-ELISA assay. Briefly, HEK293T-DDR2 cells were seeded in poly-D-lysine-coated 24-well plates at a density of 250,000 cells/well and incubated for 1.5 hours at 37° C. and 5% CO2 in DMEM+10% FBS. After that, the medium was changed to serum-free DMEM and cells were incubated for 3 hours. Then. test compounds were added at different concentrations 30 minutes before stimulation with bovine Type II Collagen at […] for further 3 hours. For DDR2 phospho-ELISA assay (DuoSet IC Human Phospho-DDR2; R&D Systems), protein extracts were obtained by adding 60 μl/well of lysis buffer prepared according to the manufacturer's instructions. Protein concentration in the samples was determined by BCA assay and the levels of phospho-DDR2 were determined following R&D Systems indications. Raw data were normalized to maximal inhibition control (0% for normalization) and positive control (100% for normalization; cells treated with 20 μg/ml collagen II) and IC50 parameters were calculated in GraphPad Prism 8.0 software, using sigmoidal dose-response curve fitting with variable slope.

T1 sequence (Q08345 19-913): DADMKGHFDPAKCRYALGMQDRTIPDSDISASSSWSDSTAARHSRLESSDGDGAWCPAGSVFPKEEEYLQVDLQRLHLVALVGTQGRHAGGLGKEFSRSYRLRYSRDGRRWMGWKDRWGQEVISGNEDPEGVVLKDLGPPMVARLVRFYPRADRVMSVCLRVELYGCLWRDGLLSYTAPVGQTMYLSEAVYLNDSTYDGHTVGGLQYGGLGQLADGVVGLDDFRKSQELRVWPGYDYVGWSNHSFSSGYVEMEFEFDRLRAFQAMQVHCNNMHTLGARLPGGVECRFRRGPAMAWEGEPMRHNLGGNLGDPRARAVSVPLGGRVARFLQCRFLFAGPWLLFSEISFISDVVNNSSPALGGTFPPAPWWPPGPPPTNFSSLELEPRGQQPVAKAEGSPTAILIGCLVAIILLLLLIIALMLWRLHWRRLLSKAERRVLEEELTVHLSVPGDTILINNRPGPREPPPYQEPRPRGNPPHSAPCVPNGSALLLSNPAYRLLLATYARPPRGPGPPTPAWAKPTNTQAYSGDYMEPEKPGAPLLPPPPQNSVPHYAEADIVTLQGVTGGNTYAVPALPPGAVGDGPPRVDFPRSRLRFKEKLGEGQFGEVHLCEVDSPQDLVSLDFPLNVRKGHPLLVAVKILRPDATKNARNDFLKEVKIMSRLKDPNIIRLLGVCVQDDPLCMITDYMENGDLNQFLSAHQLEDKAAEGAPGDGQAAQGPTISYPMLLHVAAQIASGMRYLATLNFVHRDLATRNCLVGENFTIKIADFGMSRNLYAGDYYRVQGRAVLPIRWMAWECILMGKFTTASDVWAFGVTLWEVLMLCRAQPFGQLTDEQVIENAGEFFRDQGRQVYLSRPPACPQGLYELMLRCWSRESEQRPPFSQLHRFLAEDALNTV

| Ki (DDR1 [1]) [nM] | Ki (DDR2 [2]) [nM] | IC50 (DDR1 [3]) [nM] | IC50 (DDR2 [4]) [nM] | SMILES |
| --- | --- | --- | --- | --- |
| < 25 | < 25 | < 25 | < 25 | CC(=O)Nc1ccc(CN2CCc3c(C(=O)Nc4cc(F)cc(C(F)(F)F)c4)csc3C2)cn1 [Example 42, 6-((6-acetamidopyridin-3-yl)methyl)-N-(3-fluoro-5-(trifluoromethyl)phenyl)-4,5,6,7-tetrahydrothieno[2,3-c]pyridine-3-carboxamide] |
| < 25 | < 25 | < 25 | < 25 | CC(C)(C)c1cc(NC(=O)c2csc3c2CCN(Cc2cnc(N)nc2)C3)no1 [Example 64, 6-((2-aminopyrimidin-5-yl)methyl)-N-(5-(tert-butyl)isoxazol-3-yl)-4,5,6,7-tetrahydrothieno[2,3-c]pyridine-3-carboxamide] |

From patent publication US20240199635A1, “TETRAHYDROTHIENO PYRIDINE DERIVATIVES AS DDRS INHIBITORS” (CHIESI FARMACEUTICI S.P.A., priority 2021, published 2024)
